Literature values, collected in patent US5714511A, “Selective prevention of organ injury in sepsis and shock using selection release of nitric oxide in vulnerable organs” (The United States of America as represented by the …, priority 1995, dated 1998).

Legend:
[1] = tested on: hemorrhagic shock in rats

Row | Compound | solubility in aqueous media | protective effect in hemorrhagic shock [1] | inhibition of DNA synthesis (DNA synthesis)
1 | Nitric oxide | limited solubility in aqueous media | – | –
2 | CC(=O)N[C@H](C(=O)O)C(C)(C)SN=O [SNAP, S-nitroso-N-acetyl-penicillamine] | – | significant protective effects of SNAP in hemorrhagic shock in rats | effective at inhibiting DNA synthesis
